The compounds below were run against T1, human Edg-1 receptor (Homo sapiens, UniProt P21453) (assay: GTP-γ-S assay using human Edg-1 receptors (scintillation proximity assay, membrane preparation from CHO Flp-In cell line)). Conditions: example compound at 10 μM; relative to 10 μM S1P; GTP-γ-S SPA, human Edg-1 membranes.
T1 construct: expressed in transfected cells; membrane preparation
Type: biochemical
Outline: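 Scintillation proximity GTP-γ-S binding assay measuring receptor activation. Membranes prepared from a CHO Flp-In line stably overexpressing N-terminally FLAG-tagged human Edg-1.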

T1 sequence (P21453 whole entry): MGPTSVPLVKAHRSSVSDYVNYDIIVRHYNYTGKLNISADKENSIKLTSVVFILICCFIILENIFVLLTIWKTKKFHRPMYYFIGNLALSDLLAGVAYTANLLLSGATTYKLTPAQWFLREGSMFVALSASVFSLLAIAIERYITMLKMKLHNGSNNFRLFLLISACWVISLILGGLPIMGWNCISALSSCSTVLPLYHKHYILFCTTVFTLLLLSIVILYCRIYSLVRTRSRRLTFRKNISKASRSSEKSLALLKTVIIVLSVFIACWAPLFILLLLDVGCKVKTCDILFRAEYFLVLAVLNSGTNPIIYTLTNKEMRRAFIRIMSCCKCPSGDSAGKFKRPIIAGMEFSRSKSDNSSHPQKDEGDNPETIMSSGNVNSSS

| SMILES | % Activation (Edg-1 receptor activation in percent of the activation by 10 μM S1P) |
| --- | --- |
| CCCOc1nc(Cc2ccc(Cl)cc2)nc2oc(-c3cc(C)c(OCC(O)CNC(=O)c4ccco4)c(C)c3)nc12 (stereo not drawn) [Example 305] | 103% |
| Cc1cccc(-c2nc3c(OCCCF)nc(Cc4ccc(Cl)cc4)nc3o2)c1 [Example 120] | 107% |
| CCCOc1nc(CN2CCC(F)(F)CC2)nc2oc(-c3cc(OC)ccc3OC)nc12 [Example 81] | 83% |
| CCOc1nc(Cc2ccc(Cl)cc2)nc2oc(-c3cccc(OCC(=O)N4CCC[C@H]4C(=O)O)c3)nc12 [Example 270] | 104% |
| Cc1cccc(-c2nc3c(OCCC(C)C)nc(Cc4ccc(Cl)cc4)nc3o2)c1 [Example 106] | 22% |
| CCCOc1nc(Cc2ccc(Cl)cc2)nc2oc(-c3ccc(C)cc3)nc12 [Example 100] | 88% |
| CCCOc1nc(Cc2ccc(Cl)cc2)nc2oc(-c3cc(C)c(OCC(=O)OCC(=O)O)c(C)c3)nc12 [Example 247] | 110% |
| Cc1cccc(-c2nc3c(OCC4CC4)nc(C(C)c4ccccc4)nc3o2)c1 (stereo not drawn) [Example 16] | 106% |
| CCOc1nc(Cc2ccc(Cl)cc2)nc2oc(-c3cc(C)c(OCC(O)CN(CC)CC)c(C)c3)nc12 (stereo not drawn) [Example 238] | 71% |
| CCCCOc1nc(Cc2ccc(Cl)cc2)nc2oc(-c3cccc(C)c3)nc12 [Example 108] | 31% |
| CCOc1nc(Cc2ccc(Cl)cc2)nc2oc(-c3cc(C)c(OCC(O)CNC(C)=O)c(C)c3)nc12 (stereo not drawn) [Example 208] | 111% |
| CCCOc1nc(Cc2ccc(Cl)cc2)nc2oc(-c3cc(C)c(OCC(O)CNC4CCN(C)CC4)c(C)c3)nc12 (stereo not drawn) [Example 313] | 143% |
| CCCOc1nc(Cc2ccc(Cl)cc2)nc2oc(-c3ccc(OC)nc3)nc12 [Example 151] | 26% |
| CCCOc1nc(Cc2ccc(Cl)cc2)nc2oc(-c3ccc(C(C)=O)s3)nc12 [Example 175] | 116% |
| Cc1ccc(-c2nc3c(OC4CCCC4)nc(Cc4ccc(Cl)cc4)nc3o2)cc1 [Example 113] | 41% |
| CCOc1nc(Cc2ccc(Cl)cc2)nc2oc(-c3cc(C)c(OCC(=O)N4CC[C@@H]5C[C@@]54C(=O)O)c(C)c3)nc12 [Example 318] | 101% |
| CCCOc1nc(Cc2ccc(Cl)cc2)nc2oc(-c3cc(C)c(OCC(O)CNC(=O)C4(O)CC4)c(C)c3)nc12 (stereo not drawn) [Example 308] | 107% |
| CCOc1nc(Cc2ccc(Cl)cc2)nc2oc(-c3cc(C)c(OCC(O)CS(=O)(=O)c4nnc(C)[nH]4)c(C)c3)nc12 (stereo not drawn) [Example 272] | 105% |
| CCOc1nc(Cc2ccc(Cl)cc2)nc2oc(-c3cc(C)c(OCC(O)CNCCCNS(C)(=O)=O)c(C)c3)nc12 (stereo not drawn) [Example 280] | 53% |
| CCCOc1nc(CN2CCC(F)(F)CC2)nc2oc(-c3cc(F)c(F)cc3Cl)nc12 [Example 87] | 92% |
| CCCOc1nc(Cc2ccc(Cl)cc2)nc2oc(-c3cc(C)c(OCCCNCCC(=O)O)c(C)c3)nc12 [Example 224] | 113% |
| CCCCOc1nc(Cc2ccc(Cl)cc2)nc2oc(-c3ccco3)nc12 [Example 111] | 57% |
| CCOc1nc(Cc2ccc(Cl)cc2)nc2oc(-c3cc(C)c(OCC(O)CN)c(C)c3)nc12 (stereo not drawn) [Example 263] | 138% |
| CCOc1nc(Cc2ccc(Cl)cc2)nc2oc(-c3cc(C)c(OCC(=O)NCCCNS(C)(=O)=O)c(C)c3)nc12 [Example 299] | 94% |
| C#CCOc1nc(Cc2ccc(Cl)cc2)nc2oc(-c3cccnc3)nc12 [Example 123] | 47% |
| CCOc1nc(Cc2ccc(Cl)cc2)nc2oc(-c3cccc(OCC(=O)NCC(=O)O)c3)nc12 [Example 267] | 72% |

Continued, values first:

| % Activation (Edg-1 receptor activation in percent of the activation by 10 μM S1P) | SMILES |
| --- | --- |
| 114% | CCCOc1nc(CN2CCOCC2)nc2oc(-c3cccc(F)c3)nc12 [Example 30] |
| 48% | CCCOc1nc(CN2CC3CC2CO3)nc2oc(-c3cccc(F)c3)nc12 (stereo not drawn) [Example 49] |
| 24% | CCCOc1nc(CN2CC(C(=O)O)C2)nc2oc(-c3cccc(F)c3)nc12 [Example 51] |
| 35% | CCCOc1nc(CN2CC[S+]([O-])CC2)nc2oc(-c3cccc(F)c3)nc12 [Example 46] |
| 104% | CCCOc1nc(CN2CCOCC2)nc2oc(-c3c(F)ccc(F)c3F)nc12 [Example 82] |
| 114% | CCCOc1nc(CN2CCCOCC2)nc2oc(-c3cc(Cl)ccc3OC)nc12 [Example 74] |
| 100% | CCCOc1nc(CN2CCCOCC2)nc2oc(-c3ccco3)nc12 [Example 97] |
| 112% | CCCOc1nc(CN2CCOCC2)nc2oc(-c3ccc(Cl)c(Cl)c3)nc12 [Example 77] |
| 127% | CCCOc1nc(CN2CCC(F)(F)CC2)nc2oc(-c3cccc(OC)c3)nc12 [Example 36] |
| 87% | Fc1cccc(-c2nc3c(OCC4CC4)nc(Cc4ccc(Cl)cc4)nc3o2)c1 [Example 104] |
| 115% | CCCOc1nc(CN2CCOCC2)nc2oc(-c3cc(F)cc(F)c3)nc12 [Example 24] |
| 55% | CCCOc1nc(CN2CCCCC2c2nccs2)nc2oc(-c3cccc(F)c3)nc12 (stereo not drawn) [Example 147] |
| 99% | CCCOc1nc(CN2CCOCC2)nc2oc(-c3cccc(C(F)(F)F)c3)nc12 [Example 72] |
| 41% | CCCOc1nc(Cc2ccc(Cl)cc2)nc2oc(-c3ccc(N4CCOCC4)nc3)nc12 [Example 148] |
| 103% | CCCOc1nc(CN2CCCOCC2)nc2oc(-c3ccc(Cl)c(Cl)c3)nc12 [Example 78] |
| 69% | CCCOc1nc(CN2CCS(=O)(=O)CC2)nc2oc(-c3cccc(F)c3)nc12 [Example 45] |
| 69% | CCCOc1nc(CC2CCOCC2)nc2oc(-c3cccc(F)c3)nc12 [Example 160] |
| 120% | CCCOc1nc(CN2CCC(F)(F)CC2)nc2oc(-c3ccc(Br)o3)nc12 [Example 98] |
| 105% | CCCOc1nc(Cc2ccccc2)nc2oc(-c3cccc(OC)c3)nc12 [Example 317] |
| 127% | CCCOc1nc(Cn2c(=O)n(C)c3ccccc32)nc2oc(-c3cccc(F)c3)nc12 [Example 133] |
| 106% | CCCOc1nc(CN2CCCOCC2)nc2oc(-c3ccc(OC)c(F)c3)nc12 [Example 92] |
| 55% | CCCOc1nc(Cc2ccc(Cl)cc2)nc2oc(-c3cccc(N(C)C)c3)nc12 [Example 137] |
| 116% | CCCOc1nc(CN2CCOCC2)nc2oc(-c3ccccc3)nc12 [Example 41] |
| 123% | CCCOc1nc(CN2CCC(F)(F)CC2)nc2oc(-c3cncc(F)c3)nc12 [Example 40] |
| 85% | CCCOc1nc(CN2CCCC2)nc2oc(-c3cccc(F)c3)nc12 [Example 183] |
| 69% | CCCOc1nc(CN2C(=O)CN(C)C2=O)nc2oc(-c3cccc(F)c3)nc12 [Example 53] |

Same assay, conditions: example compound at 10 μM; relative to 10 μM S1P; GTP-γ-S SPA, human Edg-1 membranes; read-out: % Activation (Edg-1 receptor activation in percent of the activation by 10 μM S1P)

| SMILES | activation at 10 µM |
| --- | --- |
| Cc1cccc(-c2nc3c(OCC4CC4)nc(CC(C)(C)c4ccccc4)nc3o2)c1 [Example 9, 7-Cyclopropylmethoxy-5-(2-methyl-2-phenyl-propyl)-2-(3-methyl-phenyl)-oxazolo[5,4-d]pyrimidine] | 37% |
| CCCOc1nc(Cc2ccc(Cl)cc2)nc2oc(-c3cc(C)c(OCCO)c(C)c3)nc12 [Example 19, 2-{4-[5-(4-Chloro-benzyl)-7-propoxy-oxazolo[5,4-d]pyrimidin-2-yl]-2,6-dimethyl-phenoxy}-ethanol] | 102% |
| CCCOc1nc(Cc2ccc(Cl)cc2)nc2oc(-c3cc(C)c(OCC(O)CO)c(C)c3)nc12 (stereo not drawn) [Example 18, 3-{4-[5-(4-Chloro-benzyl)-7-propoxy-oxazolo[5,4-d]pyrimidin-2-yl]-2,6-dimethyl-phenoxy}-propane-1,2-diol] | 128% |

Second part, the compound after the results:

| activation at 10 µM | SMILES |
| --- | --- |
| 65% | CCCOc1nc(Cc2ccc(C(F)(F)F)cc2)nc2oc(-c3cccc(F)c3)nc12 [Example 12, 2-(3-Fluoro-phenyl)-7-propoxy-5-(4-trifluoromethyl-benzyl)-oxazolo[5,4-d]pyrimidine] |
| 105% | CCCOc1nc(CN2CCOCC2)nc2oc(-c3cccc(O)c3)nc12 [Example 4, 3-(5-Morpholin-4-ylmethyl-7-propoxy-oxazolo[5,4-d]pyrimidin-2-yl)-phenol] |

From patent US8735387B2, “Oxazolopyrimidines as Edg-1 receptor agonists” (Sanofi, priority 2008, dated 2014)
